Laboratory results taken from PubChem BioAssay (NCI).
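Cells were grown in 96-well plates and exposed to each compound for 48 hours at five concentrations; endpoints were interpolated linearly between bracketing concentrations, or set to the highest concentration if not reached. GI50 = concentration required for 50% inhibition of growth. Definition used: TGI = concentration required for complete inhibition of growth.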

Key:
Assay in all cases: DTP human tumour cell line panel, 48 h
RXF 393 renal = test system: RXF 393 renal
HL-60(TB) leukemia = test system: HL-60(TB) leukemia
LOX IMVI melanoma = test system: LOX IMVI melanoma
MDA-MB-435 = test system: MDA-MB-435
SF-295 CNS = test system: SF-295 CNS
SN12C renal = test system: SN12C renal
MALME-3M melanoma = test system: MALME-3M melanoma
COLO 205 colon = test system: COLO 205 colon
786-0 renal = test system: 786-0 renal
UACC-62 melanoma = test system: UACC-62 melanoma

SMILES | TGI (RXF 393 renal) [µM] | TGI (HL-60(TB) leukemia) [µM] | TGI (LOX IMVI melanoma) [µM] | TGI (MDA-MB-435) [µM] | TGI (SF-295 CNS) [µM] | TGI (SN12C renal) [µM] | TGI (MALME-3M melanoma) [µM] | TGI (COLO 205 colon) [µM] | TGI (786-0 renal) [µM] | TGI (UACC-62 melanoma) [µM] | GI50 (RXF 393 renal) [µM] | GI50 (HL-60(TB) leukemia) [µM] | GI50 (LOX IMVI melanoma) [µM] | GI50 (MDA-MB-435) [µM] | GI50 (SF-295 CNS) [µM] | GI50 (SN12C renal) [µM] | GI50 (MALME-3M melanoma) [µM] | GI50 (COLO 205 colon) [µM] | GI50 (786-0 renal) [µM] | GI50 (UACC-62 melanoma) [µM]
COc1cc(OC)c(-c2oc3ccccc3c(=O)c2O)c(OC)c1 | 37.7 | > 24.1 | > 100 | 2.5 | > 26.9 | > 100 | 98.3 | > 100 | > 100 | > 100 |  |  |  |  |  |  |  |  |  | 
O=C1C2=C(Nc3cc([N+](=O)[O-])ccc3N2)OC1c1c[nH]c2ccc(COc3ccccc3)cc12 (stereo unspecified) | > 100 | 17.7 | > 100 | > 100 | > 100 | > 100 | > 100 | 55.8 | > 100 | > 100 |  |  |  |  |  |  |  |  |  | 
Oc1c(Br)cc(Br)c2cccnc12 | 23.3 | 5.13 | 14.1 | > 100 | 6.53 | 35.2 | 19 | 25 | 5.91 | 7.37 | 4.13 | 2.28 | 2.94 | 3.62 | 2.26 | 3.23 | 3.21 | 3.79 | 2.52 | 2.16
COC(=O)c1cc2c([nH]c3ccccc32)c(-c2nc3cc(N(S(=O)(=O)c4ccc(C)cc4)S(=O)(=O)c4ccc(C)cc4)c(OC)cc3cc2CO)n1 | > 100 | 75.7 | > 100 | > 100 | > 100 | > 100 | > 100 | > 100 | 87.8 | > 100 | > 100 | 31.7 | > 100 | > 100 | > 100 | > 100 | > 100 | > 100 | 32.1 | > 100
Cn1c(N)c(N=Nc2ccc(S(N)(=O)=O)cc2)c(=O)n(C)c1=O | > 100 | > 100 | > 100 | > 100 | > 100 | > 100 | > 100 | > 100 | > 100 | > 100 |  |  |  |  |  |  |  |  |  | 
O=C(/C=C/CN1CCCCC1)Nc1cc2c(Nc3ccc(F)c(Cl)c3F)ncnc2cc1OCCOC(F)F | 2.38 | 5.68 | 2.59 | 5.81 | 6.42 | 5.93 | 2.91 | 4.93 | 6.38 | 5.11 | 0.497 | 1.4 | 1.22 | 1.35 | 1.72 | 0.318 | 1.18 | 1.6 | 0.781 | 1.63
N#Cc1ccccc1C#C/C=C\C#Cc1cnccn1 | > 74.1 | > 24.1 | > 60.9 |  | > 25 | 41.5 | 81.4 | > 57.5 | > 79.3 | > 89.9 | > 37 | 3.23 | > 21.1 | 3.14 | 6 | 13.8 | 22.3 | 19.7 | 21 | 14.5
COc1ccc(/C=C2\CN(Cc3cn(CCCNc4ccnc5cc(Cl)ccc45)nn3)C/C(=C\c3ccc(OC)cc3)C2=O)cc1 | 18.9 | 18.2 | 18.5 | 3.02 | 31.4 | 33.8 | 5.37 | 26.8 | 30.3 | 32.1 | 5.48 | 3.27 | 3.98 | 1.6 | 14.2 | 13.1 | 2.09 | 12.2 | 14.3 | 16.3
COc1cc(C2C3=C(COC3=O)N(CCO)c3cc4c(cc32)CCC4)cc(OC)c1OC (stereo unspecified) | 0.141 |  | > 32.5 | 0.187 |  | > 32.5 | > 32.5 | 0.148 |  | > 32.5 | 0.0446 | 0.0842 | 0.166 | 0.0279 | 0.0479 | 0.142 | 0.598 | 0.0651 | 0.119 | 0.0749
COc1ccc(/C=C2\CC(C)CC3C2=NN(C(C)=O)C3c2ccc(OC)c(OC)c2)cc1OC (stereo unspecified) | 39 | 52.1 | 34.8 | 39.4 | 50.2 | 62.3 | 36.3 | 27.7 | 27.4 | 33.3 | 17.9 | 12.6 | 17.7 | 18.6 | 19.9 | 22.7 | 20.1 | 11.1 | 12.9 | 16.2
Cc1nn(-c2ccccc2)c2ncc3c(c12)C(=O)N(Cc1ccccc1)C3=O | 38.3 | > 100 | > 100 | > 100 | 10.7 | > 100 | > 100 | > 100 | 5.12 | > 100 | 6.67 | > 100 | 4.58 | > 100 | 3.14 | 9.29 | 5.24 | 4.99 | 1.94 | 21.5
